# Like-named read-outs stand apart in the source and are kept apart here.
# System: R. oryzae
# Assay: Deferasirox susceptibility testing (MIC/MFC), R. oryzae isolates
# Type: cell-based, Rhizopus oryzae
# Details: Rhizopus arrhizus; for MIC90: R. oryzae MIC90/MFC90
# Experimental: Minimum inhibitory concentration (MIC) and minimum fungicidal concentration (MFC) were determined for deferasirox by the method of Espinel-Ingroff using R. oryzae spores starved for iron (Espinel-Ingroff, (2001), supra). Cidality was defined as a <4-fold difference between MIC and MFC.
# We next determined the deferasirox susceptibilities of multiple clinical isolates of Mucorales (Table 3). The MIC9OS of deferasirox against Mucor, non-oryzae Rhizopus spp., and R. oryzae were 3.12 to 6.25 μg/ml. MFCs were similar to MICs, and deferasirox was cidal for 28/29 (97%) of isolates. Of note, slight growth was seen within the first twelve hours even at extremely high concentrations of deferasirox. […] Furthermore, the MICs and MFCs of deferasirox against these isolates were well below clinically achievable peak (˜38 μg/ml) and trough serum levels (˜17 μg/ml) of the drug at steady state when administered at the FDA-approved starting dose (20 mg/kg/d).
# [1] = NRRL6059, 24 h, R. oryzae type I NRRL 6059, 24 h
# [2] = NRRL6059, 48 h, R. oryzae type I NRRL 6059, 48 h
# [3] = NRRL21409, 48 h, R. oryzae type I NRRL21409, 48 h
compound,measurement,setting,value
"O=C(O)c1ccc(-n2nc(-c3ccccc3O)nc2-c2ccccc2O)cc1 [Deferasirox, 4-[3,5-Bis(2-hydroxyphenyl)-1H-1,2,4-triazol-1-yl]-benzoic acid]",MFC,"48 h, R. oryzae 729-02, 48 h, read-out: MFC",6.25 µg/mL
same,MIC,"48 h, R. oryzae 729-02, 48 h, read-out: MIC",6.25 µg/mL
same,MFC,"48 h, R. oryzae HUMC 02, 48 h, read-out: MFC",1.56 µg/mL
same,MIC,"48 h, R. oryzae HUMC 02, 48 h, read-out: MIC",1.56 µg/mL
same,MFC,"48 h, R. oryzae pyr17 pyrG−/−, 48 h, read-out: MFC",0.78 µg/mL
same,MIC,"48 h, R. oryzae pyr17 pyrG−/−, 48 h, read-out: MIC",0.78 µg/mL
same,MFC,"48 h, R. orzae type II 10206, 48 h, read-out: MFC",3.12 µg/mL
same,MIC,"48 h, R. orzae type II 10206, 48 h, read-out: MIC",3.12 µg/mL
same,MFC,[1],6.25 µg/mL
same,MIC,[1],6.15 µg/mL
same,MFC,[2],6.25 µg/mL
same,MIC,[2],1.56 µg/mL
same,MFC,"NRRL10206, 24 h, R. oryzae type I NRRL 10206, 24 h, read-out: MFC",3.12 µg/mL
same,MIC,"NRRL10206, 24 h, R. oryzae type I NRRL 10206, 24 h, read-out: MIC",3.12 µg/mL
same,MFC,"NRRL10206, 48 h, R. oryzae type I NRRL 10206, 48 h, read-out: MFC",3.12 µg/mL
same,MIC,"NRRL10206, 48 h, R. oryzae type I NRRL 10206, 48 h, read-out: MIC",3.12 µg/mL
same,MFC,"NRRL11823, 24 h, R. oryzae type I NRRL11823, 24 h, read-out: MFC",3.12 µg/mL
same,MIC,"NRRL11823, 24 h, R. oryzae type I NRRL11823, 24 h, read-out: MIC",3.12 µg/mL
same,MFC,"NRRL11823, 48 h, R. oryzae type I NRRL11823, 48 h, read-out: MFC",6.25 µg/mL
same,MIC,"NRRL11823, 48 h, R. oryzae type I NRRL11823, 48 h, read-out: MIC",6.25 µg/mL
same,MFC,"NRRL13142, 24 h, R. oryzae type I NRRL13142, 24 h, read-out: MFC",6.25 µg/mL
same,MIC,"NRRL13142, 24 h, R. oryzae type I NRRL13142, 24 h, read-out: MIC",6.25 µg/mL
same,MFC,"NRRL13142, 48 h, R. oryzae type I NRRL13142, 48 h, read-out: MFC",3.12 µg/mL
same,MIC,"NRRL13142, 48 h, R. oryzae type I NRRL13142, 48 h, read-out: MIC",3.12 µg/mL
same,MFC,"NRRL13440, 24 h, R. oryzae type 1 NRRL13440, 24 h, read-out: MFC",12.5 µg/mL
same,MIC,"NRRL13440, 24 h, R. oryzae type 1 NRRL13440, 24 h, read-out: MIC",1.56 µg/mL
same,MFC,"NRRL13440, 48 h, R. oryzae type 1 NRRL13440, 48 h, read-out: MFC",12.5 µg/mL
same,MIC,"NRRL13440, 48 h, R. oryzae type 1 NRRL13440, 48 h, read-out: MIC",1.56 µg/mL
same,MFC,"NRRL13533, 24 h, R. oryzae type I NRRL13533, 24 h, read-out: MFC",6.25 µg/mL
same,MIC,"NRRL13533, 24 h, R. oryzae type I NRRL13533, 24 h, read-out: MIC",1.56 µg/mL
same,MFC,"NRRL13533, 48 h, R. oryzae type I NRRL13533, 48 h, read-out: MFC",6.25 µg/mL
same,MIC,"NRRL13533, 48 h, R. oryzae type I NRRL13533, 48 h, read-out: MIC",1.56 µg/mL
same,MFC,"NRRL18148, 24 h, R. oryzae type II NRRL 18148, 24 h, read-out: MFC",0.78 µg/mL
same,MIC,"NRRL18148, 24 h, R. oryzae type II NRRL 18148, 24 h, read-out: MIC",0.78 µg/mL
same,MFC,"NRRL18148, 48 h, R. oryzae type II NRRL 18148, 48 h, read-out: MFC",0.78 µg/mL
same,MIC,"NRRL18148, 48 h, R. oryzae type II NRRL 18148, 48 h, read-out: MIC",0.78 µg/mL
same,MFC,"NRRL21251, 24 h, R. oryzae type I NRRL 21251, 24 h, read-out: MFC",6.25 µg/mL
same,MIC,"NRRL21251, 24 h, R. oryzae type I NRRL 21251, 24 h, read-out: MIC",3.12 µg/mL
same,MFC,"NRRL21251, 48 h, R. oryzae type I NRRL 21251, 48 h, read-out: MFC",6.25 µg/mL
same,MIC,"NRRL21251, 48 h, R. oryzae type I NRRL 21251, 48 h, read-out: MIC",6.25 µg/mL
same,MFC,"NRRL21396, 24 h, R. oryzae type I NRRL21396, 24 h, read-out: MFC",12.5 µg/mL
same,MIC,"NRRL21396, 24 h, R. oryzae type I NRRL21396, 24 h, read-out: MIC",12.5 µg/mL
same,MFC,"NRRL21396, 48 h, R. oryzae type I NRRL21396, 48 h, read-out: MFC",6.25 µg/mL
same,MIC,"NRRL21396, 48 h, R. oryzae type I NRRL21396, 48 h, read-out: MIC",1.56 µg/mL
same,MFC,[3],1.56 µg/mL
same,MIC,[3],1.56 µg/mL
same,MFC,"NRRL21446, 24 h, R. oryzae type II NRRL 21446, 24 h, read-out: MFC",12.5 µg/mL
same,MIC,"NRRL21446, 24 h, R. oryzae type II NRRL 21446, 24 h, read-out: MIC",6.25 µg/mL
same,MFC,"NRRL21446, 48 h, R. oryzae type II NRRL 21446, 48 h, read-out: MFC",6.25 µg/mL
same,MIC,"NRRL21446, 48 h, R. oryzae type II NRRL 21446, 48 h, read-out: MIC",6.25 µg/mL
same,MFC,"NRRL21447, 24 h, R. oryzae type II NRRL 21447, 24 h, read-out: MFC",12.5 µg/mL
same,MIC,"NRRL21447, 24 h, R. oryzae type II NRRL 21447, 24 h, read-out: MIC",6.25 µg/mL
same,MFC,"NRRL21447, 48 h, R. oryzae type II NRRL 21447, 48 h, read-out: MFC",6.25 µg/mL
same,MIC,"NRRL21447, 48 h, R. oryzae type II NRRL 21447, 48 h, read-out: MIC",6.25 µg/mL
same,MFC,"NRRL21477, 24 h, R. oryzae type II NRRL 21477, 24 h, read-out: MFC",1.56 µg/mL
same,MIC,"NRRL21477, 24 h, R. oryzae type II NRRL 21477, 24 h, read-out: MIC",1.56 µg/mL
same,MFC,"NRRL21477, 48 h, R. oryzae type II NRRL 21477, 48 h, read-out: MFC",1.56 µg/mL
same,MIC,"NRRL21477, 48 h, R. oryzae type II NRRL 21477, 48 h, read-out: MIC",1.56 µg/mL
same,MFC,"NRRL21628, 24 h, R. oryzae type II NRRL 21628, 24 h, read-out: MFC",0.78 µg/mL
same,MIC,"NRRL21628, 24 h, R. oryzae type II NRRL 21628, 24 h, read-out: MIC",0.78 µg/mL
same,MFC,"NRRL21628, 48 h, R. oryzae type II NRRL 21628, 48 h, read-out: MFC",0.78 µg/mL
same,MIC,"NRRL21628, 48 h, R. oryzae type II NRRL 21628, 48 h, read-out: MIC",0.78 µg/mL
same,MFC,"NRRL21789, 24 h, R. oryzae type II NRRL 21789, 24 h, read-out: MFC",0.39 µg/mL
same,MIC,"NRRL21789, 24 h, R. oryzae type II NRRL 21789, 24 h, read-out: MIC",0.39 µg/mL
same,MFC,"NRRL21789, 48 h, R. oryzae type II NRRL 21789, 48 h, read-out: MFC",0.39 µg/mL
same,MIC,"NRRL21789, 48 h, R. oryzae type II NRRL 21789, 48 h, read-out: MIC",0.39 µg/mL
same,MIC90,24 h,12.5 µg/mL
same,MIC90,48 h,6.25 µg/mL
